We go through six compounds from patent publication US20110195900A1, “PEPTIDIC PTH RECEPTOR AGONISTS” (FERRING B.V., priority 2008, published 2011).

Each structure is given as a SMILES string. Non-standard residues stand in square brackets, D forms with d. Residues, ends and D or L forms follow the SMILES beside them. 1Nal = N[C@@H](Cc1cccc2ccccc12)C(=O)O; β3hI = CC[C@H](C)[C@H](N)CC(=O)O; Nle = CCCC[C@H](N)C(=O)O; Aib = CC(C)(N)C(=O)O

The target in one assay is T1, human PTH-2 receptor (Homo sapiens, UniProt P49190).
T1 construct: expressed in transfected cells
Put plainly: Luciferase-based transcriptional reporter gene assay for selectivity. Format: cell-based. On the procedure: Agonist activity of compounds on the human PTH-1 receptor was determined in a reporter gene assay by transiently transfecting HEK-293 cells with plasmids encoding human PTH-1 receptor under control of the SV40 promoter and a luciferase reporter gene under control of cAMP responsive elements (CRE). See Himmler et al, J. Recept. Res. 13 (1993) 79-94, for further guidance on this assay. Transfected cells were exposed to serial dilutions of compounds for 4-5 hours followed by lysis of cells, determination of luciferase activity, and determination of compound efficacies and EC50 values through non-linear regression.
PTH (1-34) was used as an internal control in each experiment and compounds were tested in at least three independent experiments. To determine selectivity, compounds were tested in luciferase-based transcriptional reporter gene assays expressing the human PTH-2 receptor.
For orientation: Reporter assays use an easily measured gene product as a stand-in for the process of interest.

In a further assay the target is T2, human PTH-1 receptor (Homo sapiens, UniProt Q03431).
T2 construct: expressed in transfected cells; host or cells: HEK-293
T2 sequence (Q03431 27-593): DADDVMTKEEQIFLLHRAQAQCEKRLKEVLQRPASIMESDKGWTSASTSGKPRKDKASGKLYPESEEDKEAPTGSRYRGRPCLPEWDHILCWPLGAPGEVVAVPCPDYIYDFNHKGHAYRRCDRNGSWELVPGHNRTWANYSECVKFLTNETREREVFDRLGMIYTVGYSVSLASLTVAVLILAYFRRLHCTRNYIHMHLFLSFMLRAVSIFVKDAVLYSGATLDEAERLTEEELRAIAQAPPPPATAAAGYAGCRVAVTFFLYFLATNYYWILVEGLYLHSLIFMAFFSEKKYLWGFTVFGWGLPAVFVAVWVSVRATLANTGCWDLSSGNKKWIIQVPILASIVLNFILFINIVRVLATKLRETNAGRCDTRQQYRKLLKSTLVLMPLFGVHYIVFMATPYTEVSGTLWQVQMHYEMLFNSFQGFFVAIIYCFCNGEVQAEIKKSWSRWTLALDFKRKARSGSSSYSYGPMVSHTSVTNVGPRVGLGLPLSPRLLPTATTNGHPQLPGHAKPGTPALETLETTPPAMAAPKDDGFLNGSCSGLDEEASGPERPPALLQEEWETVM
Put plainly: Reporter gene assay (CRE-luciferase) for agonist activity in transiently transfected HEK-293 cells. The format is cell-based. Conditions: for hPTHR-2/hPTHR-1: Table 3, selectivity for hPTH-1 receptor over hPTH-2 receptor; for hPTHR-2/hPTHR-1 / Selectivity hPTHR-2/hPTHR-1: ratio of EC50 values; for Selectivity hPTHR-2/hPTHR-1: Table 4 comparison data. In a few lines: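 HEK-293 cells transiently transfected with SV40-driven human PTH-1 receptor and CRE-luciferase reporter, exposed to serial compound dilutions for 4-5 h, then lysed for luciferase readout; efficacy and EC50 by non-linear regression, PTH (1-34) as internal control, n≥3. Selectivity measured in analogous human PTH-2 receptor luciferase reporter assays.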

T1 sequence (P49190 25-550): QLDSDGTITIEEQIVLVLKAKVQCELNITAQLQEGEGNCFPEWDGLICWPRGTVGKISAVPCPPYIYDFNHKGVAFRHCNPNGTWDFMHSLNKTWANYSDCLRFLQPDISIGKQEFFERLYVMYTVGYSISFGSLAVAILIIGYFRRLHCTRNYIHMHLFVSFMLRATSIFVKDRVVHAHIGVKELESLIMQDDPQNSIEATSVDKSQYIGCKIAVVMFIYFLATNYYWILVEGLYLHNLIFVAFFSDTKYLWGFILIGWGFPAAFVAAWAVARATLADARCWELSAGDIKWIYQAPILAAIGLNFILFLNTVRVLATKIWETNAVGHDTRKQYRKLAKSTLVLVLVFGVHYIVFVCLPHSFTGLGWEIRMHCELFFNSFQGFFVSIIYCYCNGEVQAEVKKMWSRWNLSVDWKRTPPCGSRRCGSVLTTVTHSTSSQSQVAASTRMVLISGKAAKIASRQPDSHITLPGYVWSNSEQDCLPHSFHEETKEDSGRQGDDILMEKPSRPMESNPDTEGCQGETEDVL

The compound `CCCC[C@H](NC(=O)[C@H](CC(C)C)NC(=O)[C@H](CCC(N)=O)NC(=O)[C@@H](NC(=O)[C@H](CCC(=O)O)NC(=O)[C@H](CO)NC(=O)[C@@H](NC(=O)[C@@H](N)CO)C(C)C)[C@@H](C)CC)C(=O)N[C@@H](Cc1c[nH]cn1)C(=O)N[C@@H](CC(N)=O)C(=O)N[C@@H](CC(C)C)C(=O)NCC(=O)N[C@@H](CCCCN)C(=O)N[C@@H](Cc1c[nH]cn1)C(=O)N[C@@H](CC(C)C)C(=O)N[C@@H](CC(N)=O)C(=O)N[C@@H](CO)C(=O)N[C@H](CC(=O)N[C@@H](CCC(=O)O)C(=O)N[C@@H](CCCNC(=N)N)C(=O)N[C@H](C(=O)N[C@@H](CCC(=O)O)C(=O)N[C@@H](Cc1cccc2ccccc12)C(=O)N[C@@H](CC(C)C)C(=O)N[C@@H](CCCNC(=N)N)C(=O)N[C@@H](CCCCN)C(=O)N[C@@H](CC(C)C)C(=O)N[C@@H](CC(C)C)C(=O)N[C@@H](CCC(N)=O)C(=O)N[C@@H](CC(=O)O)C(=O)N[C@H](C(=O)N[C@@H](Cc1c[nH]cn1)C(=O)N[C@@H](CC(N)=O)C(=O)N[C@@H](CCCCN)C(N)=O)C(C)C)C(C)C)[C@@H](C)CC` [SEQ ID NO: 30, [Nle^8, β-hIle^18,1-Nal^23, Leu^27, Lys^34] hPTH (1-34)-NH2] (H-SVSEIQL[Nle]HNLGKHLNS[β3hI]ERVE[1Nal]LRKLLQDVHNK-NH2; N-terminus assumed) yielded an EC50 on human PTH-2 receptor of 17 nM. In addition, on human PTH-1 receptor, it took 0.1 nM to reach a half-maximal effect (EC50) and the hPTHR-2/hPTHR-1 was found to be 173.
At human PTH-2 receptor, `CCCC[C@H](NC(=O)[C@H](CC(C)C)NC(=O)[C@H](CCC(N)=O)NC(=O)[C@@H](NC(=O)[C@H](CCC(=O)O)NC(=O)[C@H](CO)NC(=O)[C@@H](NC(=O)[C@@H](N)CO)C(C)C)[C@@H](C)CC)C(=O)N[C@@H](Cc1c[nH]cn1)C(=O)N[C@@H](CC(N)=O)C(=O)N[C@@H](CC(C)C)C(=O)NCC(=O)N[C@@H](CCCCN)C(=O)N[C@@H](Cc1c[nH]cn1)C(=O)N[C@@H](CC(C)C)C(=O)N[C@@H](CC(N)=O)C(=O)N[C@@H](CO)C(=O)N[C@H](CC(=O)N[C@@H](CCC(=O)O)C(=O)N[C@@H](CCCNC(=N)N)C(=O)N[C@H](C(=O)N[C@@H](CCC(=O)O)C(=O)N[C@@H](Cc1cccc2ccccc12)C(=O)N[C@@H](CC(C)C)C(=O)N[C@@H](CCCNC(=N)N)C(=O)N[C@@H](CCCCN)C(=O)N[C@@H](CC(C)C)C(=O)N[C@@H](CC(C)C)C(=O)N[C@@H](CCC(N)=O)C(=O)N[C@@H](CC(=O)O)C(=O)N[C@H](C(=O)N[C@@H](Cc1c[nH]cn1)C(=O)N[C@@H](CC(N)=O)C(=O)N[C@@H](Cc1ccccc1)C(N)=O)C(C)C)C(C)C)[C@@H](C)CC` [SEQ ID NO: 19, [Nle^8, β-hIle^18,1-Nal^23, Leu^27] hPTH (1-34)-NH2] (H-SVSEIQL[Nle]HNLGKHLNS[β3hI]ERVE[1Nal]LRKLLQDVHNF-NH2) registered an EC50 of 32 nM. At human PTH-1 receptor, the EC50 stood at 0.14 nM, the hPTHR-2/hPTHR-1 is 224 and the “Selectivity hPTHR-2/hPTHR-1” value stood at 224.
`CCCC[C@H](NC(=O)[C@H](CC(C)C)NC(=O)[C@H](CCC(N)=O)NC(=O)[C@@H](NC(=O)[C@H](CCC(=O)O)NC(=O)[C@H](CO)NC(=O)[C@@H](NC(=O)[C@@H](N)CO)C(C)C)[C@@H](C)CC)C(=O)N[C@@H](Cc1c[nH]cn1)C(=O)N[C@@H](CO)C(=O)N[C@@H](CC(C)C)C(=O)NCC(=O)N[C@@H](CCCCN)C(=O)N[C@@H](Cc1c[nH]cn1)C(=O)N[C@@H](CC(C)C)C(=O)N[C@@H](CC(N)=O)C(=O)N[C@@H](CO)C(=O)N[C@H](CC(=O)N[C@@H](CCC(=O)O)C(=O)N[C@@H](CCCNC(=N)N)C(=O)N[C@H](C(=O)N[C@@H](CCC(=O)O)C(=O)N[C@@H](Cc1cccc2ccccc12)C(=O)N[C@@H](CC(C)C)C(=O)N[C@@H](CCCNC(=N)N)C(=O)N[C@@H](CCCCN)C(=O)N[C@@H](CC(C)C)C(=O)N[C@@H](CC(C)C)C(=O)N[C@@H](CCC(N)=O)C(=O)N[C@@H](CC(=O)O)C(=O)N[C@H](C(=O)N[C@@H](Cc1c[nH]cn1)C(=O)N[C@@H](CC(N)=O)C(=O)N[C@@H](Cc1ccccc1)C(N)=O)C(C)C)C(C)C)[C@@H](C)CC` [SEQ ID NO: 23, [Nle^8, Ser^10, β-hIle^18,1-Nal^23, Leu^27] hPTH (1-34)-NH2] (H-SVSEIQL[Nle]HSLGKHLNS[β3hI]ERVE[1Nal]LRKLLQDVHNF-NH2) returned an EC50 on human PTH-2 receptor of 17 nM. Also, on human PTH-1 receptor, a half-maximal effect (EC50) was put at 0.18 nM and the hPTHR-2/hPTHR-1 was found to be 95.
Consider `CCCC[C@H](NC(=O)[C@H](CC(C)C)NC(=O)[C@H](CCC(N)=O)NC(=O)[C@@H](NC(=O)[C@H](CCC(=O)O)NC(=O)[C@H](CO)NC(=O)[C@@H](NC(=O)C(C)(C)N)C(C)C)[C@@H](C)CC)C(=O)N[C@@H](Cc1c[nH]cn1)C(=O)N[C@@H](CC(N)=O)C(=O)N[C@@H](CC(C)C)C(=O)NCC(=O)N[C@@H](CCCCN)C(=O)N[C@@H](Cc1c[nH]cn1)C(=O)N[C@@H](CC(C)C)C(=O)N[C@@H](CC(N)=O)C(=O)N[C@@H](CO)C(=O)N[C@H](CC(=O)N[C@@H](CCC(=O)O)C(=O)N[C@@H](CCCNC(=N)N)C(=O)N[C@H](C(=O)N[C@@H](CCC(=O)O)C(=O)N[C@@H](Cc1cccc2ccccc12)C(=O)N[C@@H](CC(C)C)C(=O)N[C@@H](CCCNC(=N)N)C(=O)N[C@@H](CCCCN)C(=O)N[C@@H](CC(C)C)C(=O)N[C@@H](CC(C)C)C(=O)N[C@@H](CCC(N)=O)C(=O)N[C@@H](CC(=O)O)C(=O)N[C@H](C(N)=O)C(C)C)C(C)C)[C@@H](C)CC` [SEQ ID NO: 5, [Aib^1, Nle^8, β-hIle^18,1-Nal^23, Leu^27] hPTH (1-31)-NH2] (H-[Aib]VSEIQL[Nle]HNLGKHLNS[β3hI]ERVE[1Nal]LRKLLQDV-NH2), for which, on human PTH-2 receptor, it took 18 nM to reach a half-maximal effect (EC50). On human PTH-1 receptor, a half-maximal response (EC50) required 0.05 nM, the hPTHR-2/hPTHR-1 is 387 and the “Selectivity hPTHR-2/hPTHR-1” value came out at 387.
Take `CCCC[C@H](NC(=O)[C@H](CC(C)C)NC(=O)[C@H](CCC(N)=O)NC(=O)[C@@H](NC(=O)[C@H](CCC(=O)O)NC(=O)[C@H](CO)NC(=O)[C@@H](NC(=O)C(C)(C)N)C(C)C)[C@@H](C)CC)C(=O)N[C@@H](Cc1c[nH]cn1)C(=O)N[C@@H](CC(N)=O)C(=O)N[C@@H](CC(C)C)C(=O)NCC(=O)N[C@@H](CCCCN)C(=O)N[C@@H](Cc1c[nH]cn1)C(=O)N[C@@H](CC(C)C)C(=O)N[C@@H](CC(N)=O)C(=O)N[C@@H](CO)C(=O)N[C@H](CC(=O)N[C@@H](CCC(=O)O)C(=O)N[C@@H](CCCNC(=N)N)C(=O)N[C@H](C(=O)N[C@@H](CCC(=O)O)C(=O)N[C@@H](Cc1cccc2ccccc12)C(=O)N[C@@H](CC(C)C)C(=O)N[C@@H](CCCNC(=N)N)C(=O)N[C@@H](CCCCN)C(=O)N[C@@H](CC(C)C)C(=O)N[C@@H](CC(C)C)C(=O)N[C@@H](CCC(N)=O)C(=O)N[C@@H](CC(=O)O)C(=O)N[C@H](C(=O)N[C@@H](Cc1c[nH]cn1)C(=O)N[C@@H](CC(N)=O)C(=O)N[C@@H](Cc1ccccc1)C(N)=O)C(C)C)C(C)C)[C@@H](C)CC` [SEQ ID NO: 36, [Aib^1, Nle^8, β-hIle^18,1-Nal^23, Leu^27] hPTH (1-34)-NH2] (H-[Aib]VSEIQL[Nle]HNLGKHLNS[β3hI]ERVE[1Nal]LRKLLQDVHNF-NH2): at human PTH-2 receptor, the EC50 is 16 nM. Besides, at human PTH-1 receptor, the midpoint of the response, the EC50, lay at 0.04 nM; the hPTHR-2/hPTHR-1 is given as 372; the “Selectivity hPTHR-2/hPTHR-1” value worked out at 372.
On human PTH-2 receptor, `CCCC[C@H](NC(=O)[C@H](CC(C)C)NC(=O)[C@H](CCC(N)=O)NC(=O)[C@@H](NC(=O)[C@H](CCC(=O)O)NC(=O)[C@H](CO)NC(=O)[C@@H](NC(=O)C(C)(C)N)C(C)C)[C@@H](C)CC)C(=O)N[C@@H](Cc1c[nH]cn1)C(=O)N[C@@H](CO)C(=O)N[C@@H](CC(C)C)C(=O)NCC(=O)N[C@@H](CCCCN)C(=O)N[C@@H](Cc1c[nH]cn1)C(=O)N[C@@H](CC(C)C)C(=O)N[C@@H](CCCCN)C(=O)N[C@@H](CO)C(=O)N[C@H](CC(=O)N[C@@H](CCC(=O)O)C(=O)N[C@@H](CCCNC(=N)N)C(=O)N[C@H](C(=O)N[C@@H](CCC(=O)O)C(=O)N[C@@H](Cc1cccc2ccccc12)C(=O)N[C@@H](CC(C)C)C(=O)N[C@@H](CCCNC(=N)N)C(=O)N[C@@H](CCCCN)C(=O)N[C@@H](CC(C)C)C(=O)N[C@@H](CC(C)C)C(=O)N[C@@H](CCC(N)=O)C(=O)N[C@@H](CCCNC(=N)N)C(=O)N[C@H](C(N)=O)C(C)C)C(C)C)[C@@H](C)CC` [SEQ ID NO: 45, [Aib^1, Nle^8, Ser^10, Lys^16, β-hIle^18,1-Nal^23, Leu^27, Arg^30] hPTH (1-31)-NH2] (H-[Aib]VSEIQL[Nle]HSLGKHLKS[β3hI]ERVE[1Nal]LRKLLQRV-NH2) came in with an EC50 of 6 nM. On human PTH-1 receptor, the EC50 came to 0.09 nM and the hPTHR-2/hPTHR-1 was found to be 72.

As a reminder, the EC50 is the concentration needed to bring the measured effect to its halfway point. Read a low EC50 as an effect from little substance.
